Results: patent US8058242B2, “Chimeric proteins with natriuretic activity” (The University of Queensland, priority 2004, dated 2011)
Positions of bridges follow the written chain, without caps; N, C: chain ends. Residues, ends and D or L forms follow the SMILES beside them.

Experiments:
[1] = system: conscious normotensive rabbits; test: Blood pressure and heart rate in conscious normotensive rabbits, intravenous bolus of TDT analogs (Example 17); details: i.v. bolus 0.24 mg/kg; for MAP, mean difference from control: at MAP minimum
[2] = biological target: T1, NPR-A signaling in HeLa cells (Homo sapiens, UniProt P16066); test: cGMP AlphaScreen assay in HeLa cells (Examples 14, 15); format: cell-based; details: 30 minutes at 37° C.
T1 construct: Cyclic GMP (cGMP) elevation in HeLa cells in response to Natriuretic Peptide stimulation; endogenous in cells; host or cells: HeLa cells
T1 sequence (P16066 33-1061): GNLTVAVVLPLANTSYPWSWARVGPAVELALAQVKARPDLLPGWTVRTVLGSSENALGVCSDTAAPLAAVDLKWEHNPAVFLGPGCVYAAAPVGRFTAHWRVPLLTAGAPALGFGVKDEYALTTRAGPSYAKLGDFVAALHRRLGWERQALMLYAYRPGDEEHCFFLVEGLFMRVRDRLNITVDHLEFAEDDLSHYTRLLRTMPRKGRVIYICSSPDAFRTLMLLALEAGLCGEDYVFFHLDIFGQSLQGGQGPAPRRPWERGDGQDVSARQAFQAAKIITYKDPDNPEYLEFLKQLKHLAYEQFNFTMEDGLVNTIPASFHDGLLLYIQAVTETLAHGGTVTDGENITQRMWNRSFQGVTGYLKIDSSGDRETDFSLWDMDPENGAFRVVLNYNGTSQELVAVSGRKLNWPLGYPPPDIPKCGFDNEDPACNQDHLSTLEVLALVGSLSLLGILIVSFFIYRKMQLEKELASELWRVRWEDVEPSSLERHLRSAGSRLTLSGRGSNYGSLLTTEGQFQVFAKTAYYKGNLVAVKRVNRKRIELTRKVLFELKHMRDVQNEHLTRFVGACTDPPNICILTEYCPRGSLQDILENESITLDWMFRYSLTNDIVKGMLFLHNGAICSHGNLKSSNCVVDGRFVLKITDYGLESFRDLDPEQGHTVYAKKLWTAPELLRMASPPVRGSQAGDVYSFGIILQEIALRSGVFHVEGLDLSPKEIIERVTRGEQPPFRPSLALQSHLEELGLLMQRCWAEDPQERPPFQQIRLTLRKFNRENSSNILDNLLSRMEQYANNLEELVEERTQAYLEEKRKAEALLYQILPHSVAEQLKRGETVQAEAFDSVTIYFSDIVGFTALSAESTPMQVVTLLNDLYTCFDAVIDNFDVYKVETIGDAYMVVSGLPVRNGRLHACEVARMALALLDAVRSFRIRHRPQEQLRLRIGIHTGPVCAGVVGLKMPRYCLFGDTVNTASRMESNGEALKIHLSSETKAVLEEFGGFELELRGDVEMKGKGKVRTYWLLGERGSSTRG
Protocol: HeLa cells were maintained in RPMI cell culture medium (Gihco Invitrogen, Mt Waverley, Australia) supplemented with 10% Foetal Bovine Serum (Cambrex Bio Science, Rockland, USA). Upon reaching confluence, cells were sub-cultured such that they would be 70-90% confluent at time of assay.
Cyclic GMP (cGMP) elevation in HeLa cells in response to Natriuretic Peptide stimulation was performed using a cGMP AlphaScreen kit (PerkinElmer, Boston, USA), as follows for normal experiments: Cells were detached, pelleted to remove growth medium, and resuspended in Stimulation Buffer (Hank's Balanced Salt Solution, 0.1% Bovine Serum Albumin [BSA] (Sigma-Aldrich, Castle Hill, Australia), 1 mM 3-Isobutyl-1-methylxanthine [IBMX] (Sigma-Aldrich, Castle Hill, Australia)) and diluted to 6×10^6 cells per mL (30 000 cells per 5 μL). 5 μL of cells were added to wells of white 384-well OptiPlates (PerkinElmer, Boston, USA), and stimulated with increasing concentrations of peptide for 30 minutes at 37° C. Cells were then lysed with 10 μL Lysis buffer (dH2O, 0.3% Tween-20 (Sigma-Aldrich, Castle Hill, Australia), 5 mM HEPES (JRH Biosciences, Kansas, USA) and 0.1% BSA) and 5 μL acceptor bead mix (10 μL per mL acceptor beads and 1/3000 anti-cGMP antibody (BioVision, Mountain View, USA) in lysis buffer) added per well in the dark. Plates were incubated in the dark at room temperature for 30 minutes, then 5 μL donor bead mix (10 μL per ML donor beads and 0.3 nM biotinylated cGMP in lysis buffer) was added per well in the dark and the plate incubated overnight at room temperature. Signal was read using an EnVision plate reader (PerkinElmer, Boston, USA) and data analysed using Prism software. The cGMP standard curve was performed as per manufacturer's instructions.
To examine whether TNPc and synthetic analogs produced in the inventors' laboratory could stimulate NPR-A signaling, cGMP elevations in HeLa cells in response to these peptides were measured, as described above.

[3] = −Log10EC50 (pEC50) ± Standard Error, cGMP accumulation in HeLa cells

With `CC[C@H](C)[C@H](NC(=O)[C@H](CCCCN)NC(=O)[C@H](CO)NC(=O)[C@H](CC(=O)O)NC(=O)[C@@H](N)CO)C(=O)NCC(=O)N[C@@H](CC(N)=O)C(=O)NCC(=O)N[C@H]1CSSC[C@@H](C(=O)N[C@@H](CC(N)=O)C(=O)N[C@@H](CCCNC(=N)N)C(=O)N[C@H](C(=O)N[C@@H](CCSC)C(=O)N[C@@H](CCC(N)=O)C(=O)N[C@@H](CC(N)=O)C(=O)N2CCC[C@H]2C(=O)N2CCC[C@H]2C(=O)N[C@@H](CCCCN)C(=O)N[C@@H](CCCCN)C(=O)N[C@@H](Cc2ccccc2)C(=O)N[C@@H](CO)C(=O)NCC(=O)N[C@@H](CCC(=O)O)C(=O)O)[C@@H](C)CC)NC(=O)CNC(=O)[C@H](CC(C)C)NC(=O)[C@H](CC(N)=O)NC(=O)[C@H](CO)NC(=O)[C@H](C(C)C)NC(=O)[C@H](Cc2c[nH]cn2)NC(=O)[C@H](CC(N)=O)NC(=O)[C@H]([C@@H](C)CC)NC(=O)[C@H](CCCNC(=N)N)NC(=O)[C@H](CC(=O)O)NC(=O)[C@H]([C@@H](C)CC)NC(=O)[C@H](CCCCN)NC(=O)[C@H](CCCNC(=N)N)NC(=O)CNC(=O)[C@H](Cc2ccccc2)NC1=O` [H12R-TDT] the “HR, mean difference from control” value [1] was −7±5 b/min, the “time after administration at which the MAP effect occurred, on average” value [1] was 97 min and the “MAP, mean difference from control” value [1] was −9.2±2.2 mmHg.

For `CC[C@H](C)[C@H](NC(=O)[C@H](CCCCN)NC(=O)[C@H](CO)NC(=O)[C@H](CC(=O)O)NC(=O)[C@@H](N)CO)C(=O)NCC(=O)N[C@@H](CC(N)=O)C(=O)NCC(=O)N[C@H]1CSSC[C@@H](C(=O)N[C@@H](CC(N)=O)C(=O)N[C@@H](CCCNC(=N)N)C(=O)N[C@H](C(=O)N[C@@H](CCSC)C(=O)N[C@@H](CCC(N)=O)C(=O)N[C@@H](CC(N)=O)C(=O)N2CCC[C@H]2C(=O)N2CCC[C@H]2C(=O)N[C@@H](CCCCN)C(=O)N[C@@H](CCCCN)C(=O)N[C@@H](Cc2ccccc2)C(=O)N[C@@H](CO)C(=O)NCC(=O)N[C@@H](CCC(=O)O)C(=O)O)[C@@H](C)CC)NC(=O)CNC(=O)[C@H](CC(C)C)NC(=O)CNC(=O)[C@H](CO)NC(=O)[C@H](C(C)C)NC(=O)[C@H](Cc2c[nH]cn2)NC(=O)[C@H](CC(N)=O)NC(=O)[C@H]([C@@H](C)CC)NC(=O)[C@H](CCCNC(=N)N)NC(=O)[C@H](CC(=O)O)NC(=O)[C@H]([C@@H](C)CC)NC(=O)[C@H](CCCCN)NC(=O)[C@H](Cc2c[nH]cn2)NC(=O)CNC(=O)[C@H](Cc2ccccc2)NC1=O` [N22G-TDT] (H-SDSKIGNGCFGHKIDRINHVSGLGCNRIMQNPPKKFSGE-OH; disulfide 9-25), the “HR, mean difference from control” value [1] was “little effect on HR”, the “time after administration at which the MAP effect occurred, on average” value [1] was 140 min and the “MAP, mean difference from control” value [1] was −17.4±7.6 mmHg. The EC50 [2, 3] was 3.14 nM.

`CC[C@H](C)[C@H](NC(=O)[C@H](CCCCN)NC(=O)[C@H](CO)NC(=O)[C@H](CC(=O)O)NC(=O)[C@@H](N)CO)C(=O)NCC(=O)N[C@@H](CC(N)=O)C(=O)NCC(=O)N[C@H]1CSSC[C@@H](C(=O)N[C@@H](CC(N)=O)C(=O)N[C@@H](CCCNC(=N)N)C(=O)N[C@H](C(=O)N[C@@H](CCSC)C(=O)N[C@@H](CCC(N)=O)C(=O)N[C@@H](CC(N)=O)C(=O)N2CCC[C@H]2C(=O)N2CCC[C@H]2C(=O)N[C@@H](CCCCN)C(=O)N[C@@H](CCCCN)C(=O)N[C@@H](Cc2ccccc2)C(=O)N[C@@H](CO)C(=O)NCC(=O)N[C@@H](CCC(=O)O)C(=O)O)[C@@H](C)CC)NC(=O)CNC(=O)[C@H](CC(C)C)NC(=O)[C@H](CC(N)=O)NC(=O)[C@H](CO)NC(=O)[C@H](C)NC(=O)[C@H](Cc2c[nH]cn2)NC(=O)[C@H](CC(N)=O)NC(=O)[C@H]([C@@H](C)CC)NC(=O)[C@H](CCCNC(=N)N)NC(=O)[C@H](CC(=O)O)NC(=O)[C@H]([C@@H](C)CC)NC(=O)[C@H](CCCCN)NC(=O)[C@H](Cc2c[nH]cn2)NC(=O)CNC(=O)[C@H](Cc2ccccc2)NC1=O` [V20A-TDT] (H-SDSKIGNGCFGHKIDRINHASNLGCNRIMQNPPKKFSGE-OH; disulfide 9-25) showed an EC50 ([2]; EC50, cGMP accumulation in HeLa cells) of 455 nM and an EC50 [2, 3] of 382 nM.
